Experimental data: patent publication US9443060B2, “Method and system to provide personalized pharmaceutical compositions and dosages” (Volant Holdings GMBH, priority 2009, dated 2016)

How the values were obtained:
insulin resistance (IR) = assay: Glucose supply and insulin demand model: effect on insulin resistance; assay type: in vivo, human; details: for IR reduction: adjustment factor = decrease in insulin resistance at the therapeutic dose of Table 1, T2D
Experimental: (§1) Therapeutic targets of the glucose supply (CE, 1+2; HGU, 3; GNG, 4; IR, 5) and insulin demand (PGU, 6; PIE, 7) model are presented in FIG. 1. To identify quantitative differences between antidiabetic agents on CE, HGU, GNG, IR, PGU, and PIE, multidatabase searches (Cochrane Central Register of Controlled Trials and Cochrane Register of Systematic Reviews, Embase, OVID Healthstar, OVID Journals, and PubMed) were conducted cross-referencing title and keywords for all selected antidiabetic therapies and their respective targets.
(§2) Alpha-glucosidase, biguanide, and thiazolidinedione (TZD) studies with long-term, pre-post design at maximal therapeutic doses were identified to simulate chronic administration. To maintain consistency with cardiovascular trials and accommodate known influences of hyperglycemia and hyperinsulinemia on the respective targets,^13-16 studies including patients with HbA1c in the range of 6-8% and body mass index (BMI)≧30 kg/m^2 were preferentially selected. In the event multiple studies were available to identify the effect of an agent on a therapeutic target, the mean percent change was used. Conversely, if there was evidence that an agent would elicit a response on a given target but no mathematical representation of the difference was provided, conservative estimates consistent with the scale of other agents and the degree of glucose regulation were instituted to best represent the expected effect. Individual agents were then characterized for the 24 h percent change from baseline for CE, HGU, GNG, IR, PGU, and PIE. Carbohydrate exposure was determined as the combined effect of caloric intake and intestinal carbohydrate absorption. Hepatic glucose uptake was defined as the reported value obtained immediately following oral glucose loading. Because GNG is known to be enhanced in the fasting state and persistent throughout the prandial phase,^17,18 effect was determined during the fasting state and considered equivalent throughout the prandial phase. For studies evaluating fasting glucose and insulin concentrations, an index of IR was determined by homeostasis model assessment of insulin resistance (HOM-AIR) using the following formula: Insulin (mU/liter)×Glucose (mmol)/22.5.^19 To account for known differences in secretory and uptake dynamics during the fasting and prandial phases, studies identifying the impact of therapies during the fasting state (or simulated hyperinsulinemic euglycemic clamp) and prandial phase (or oral glucose load insulin clamp) were specifically identified for changes in PGU (glucose infusion rate) and PIE (insulin concentrations) according to Equation (1): […]
(§3) For sulfonylurea and insulin-based therapies, insulin concentration time profiles were obtained and superimposed on the baseline 24 h insulin concentration time profile of T2D patients (FIG. 2) to calculate the increase in PIE (trapezoidal rule).^20 Calculated increases in incremental and cumulative insulin exposure were correlated to known insulin dose-response effects on HGU, GNG, and PGU (FIG. 3),^18,21 according to the equation y=mx+b. Twenty-four-hour increases in HGU, PGU, and PIE and decreases in GNG were compared to baseline values and percent change calculated.
(§4) With alpha-glucosidase, biguanide, TZD, secretagogue, and insulin therapies characterized for their respective impacts on CE, HGU, GNG, IR, PIE, and PGU, identification of their effect on the glucose supply (decrease in CE, increase in HGU, decrease in GNG, decrease in IR) and insulin demand (increase in PIE, increase in PGU) dynamic was assessed according to Equation (2), which provides the SD ratio according to the invention: […]

[1] = tested on: hepatic gluconeogenesis (GNG); assay: Glucose supply and insulin demand model: effect on hepatic gluconeogenesis; assay type: in vivo, human; details: for GNG inhibition: adjustment factor = decrease in hepatic gluconeogenesis at the therapeutic dose of Table 1, T2D
Experimental: as §1, §2, §3, §4

[2] = tested on: peripheral insulin exposure (PIE); assay: Glucose supply and insulin demand model: effect on peripheral insulin exposure; assay type: in vivo, human; set-up: PIE (24 h insulin exposure): unit not given here; details: for PIE: adjustment factor = increase in peripheral insulin exposure at the therapeutic dose of Table 1, T2D
Experimental: as §1, §2, §3, §4
Twenty-four-hour steady state insulin concentration time curves were superimposed on the baseline secretion profile of the standard T2D patient.

[3] = tested on: hepatic glucose uptake (HGU); assay: Glucose supply and insulin demand model: effect on hepatic glucose uptake; assay type: in vivo, human; details: for HGU uptake: adjustment factor = increase in hepatic glucose uptake at the therapeutic dose of Table 1, T2D
Experimental: as §1, §2, §3, §4

[4] = tested on: peripheral glucose uptake (PGU); assay: Glucose supply and insulin demand model: effect on peripheral glucose uptake; assay type: in vivo, human; details: for PGU: adjustment factor = increase in peripheral glucose uptake at the therapeutic dose of Table 1, T2D
Experimental: as §1, §2, §3, §4

[5] = tested on: carbohydrate exposure (CE); assay: Glucose supply and insulin demand model: effect on carbohydrate exposure; assay type: in vivo, human; set-up: scale not given here; details: for CE inhibition: adjustment factor = decrease in carbohydrate exposure at the therapeutic dose of Table 1, T2D
Experimental: as §1, §2, §3, §4

[6] = tested on: hepatic gluconeogenesis (GNG); details: cited from earlier work
[7] = Metformin 2000 mg, Glyburide 10 mg, Pioglitazone 45 mg, Insulin Glargine 0.5 U/kg daily, pH encapsulated glucose 3.0 grams/day
[8] = Insulin Glargine 1.0 U/Kg daily
[9] = insulin glargine 0.5 U/kg, from insulin dose-response relationship

Compound	IR reduction (insulin resistance (IR))	GNG inhibition [1]	PIE [2]	HGU uptake [3]	PGU [4]	CE inhibition [5]	further results
C[C@H]1O[C@H](O[C@H]2[C@H](O)[C@@H](O)[C@@H](O[C@H]3[C@H](O)[C@@H](O)C(O)O[C@@H]3CO)O[C@@H]2CO)[C@H](O)[C@@H](O)[C@@H]1N[C@H]1C=C(CO)[C@@H](O)[C@H](O)[C@H]1O (stereo partly drawn) [Acarbose]	0.15	0.05	0.05	0.15	0.25		
CC(=O)c1ccc(S(=O)(=O)NC(=O)NC2CCCCC2)cc1 [Acetohexamide]	0.00	0.07	0.21	0.14	0.36		
CCCNC(=O)NS(=O)(=O)c1ccc(Cl)cc1 [Chlorpropamide]	0.00	0.07	0.21	0.14	0.36		
CCC1=C(C)CN(C(=O)NCCc2ccc(S(=O)(=O)NC(=O)N[C@H]3CC[C@H](C)CC3)cc2)C1=O [Glimepiride]	0.00	0.08	0.24	0.18	0.39		
Cc1cnc(C(=O)NCCc2ccc(S(=O)(=O)NC(=O)NC3CCCCC3)cc2)cn1 [Glipizide]	0.00	0.08					
COc1ccc(Cl)cc1C(=O)NCCc1ccc(S(=O)(=O)NC(=O)NC2CCCCC2)cc1 [Glyburide]	0.00	0.07	0.21	0.14	0.36		Score IR (insulin resistance (IR); [7]): 0.00; Score HGI [1, 7]: 0.07; Score PIE [2, 7]: 0.21; Score HGU [3, 7]: 0.14; Score PGU [4, 7]: 0.36; Score CE [5, 7]: 0.00
OCCN1C[C@H](O)[C@@H](O)[C@H](O)[C@H]1CO [Miglitol]	0.15	0.05	0.05	0.15	0.25		hepatic glucose output ([6]; Schnack, miglitol 300 mg/day, eight weeks, euglycemic clamp, poorly controlled T2D, placebo 0.35±0.17, not significant): 0.37±0.15 mg/kg^−1/min^−1; change in hepatic glucose production ([6]; Sels, miglitol 200 mg at bedtime for 1 week, T2D): not associated with a change in hepatic glucose production
CC(C)[C@H]1CC[C@H](C(=O)N[C@H](Cc2ccccc2)C(=O)O)CC1 [Nateglinide]	0.00	0.11	0.34	0.21	0.60		
CCc1ccc(CCOc2ccc(CC3SC(=O)NC3=O)cc2)nc1 (stereo not drawn) [Pioglitazone]	0.35	0.21	−0.10	0.40	0.59		Score IR (insulin resistance (IR); [7]): 0.35; Score HGI [1, 7]: 0.21; Score PIE [2, 7]: −0.10; Score HGU [3, 7]: 0.40; Score PGU [4, 7]: 0.59; Score CE [5, 7]: 0.00
CCOc1cc(CC(=O)N[C@@H](CC(C)C)c2ccccc2N2CCCCC2)ccc1C(=O)O [Repaglinide]	0.00	0.07	0.20	0.16	0.31		
CN(CCOc1ccc(CC2SC(=O)NC2=O)cc1)c1ccccn1 (stereo not drawn) [Rosiglitazone]	0.39	0.23	−0.10				
Cc1ccc(S(=O)(=O)NC(=O)NN2CCCCCC2)cc1 [Tolazamide]	0.00	0.07	0.21	0.14	0.36		
CCCCNC(=O)NS(=O)(=O)c1ccc(C)cc1 [Tolbutamide]	0.00	0.07	0.21	0.14	0.36		
Cc1c(C)c2c(c(C)c1O)CCC(C)(COc1ccc(CC3SC(=O)NC3=O)cc1)O2 (stereo not drawn) [Troglitazone]	0.35	0.22	−0.10	0.40	0.67		
Insulin Aspart	0.00	0.14	0.42	0.23	0.80	0.00	
Insulin Aspart Protamine	0.00	0.10	0.28	0.23	0.40	0.00	
Insulin Glargine	0.00	0.10	0.30	0.24	0.42	0.00	Score IR (insulin resistance (IR); [8]): 0.00; Score IR (insulin resistance (IR); [7]): 0.00; Score HGI [1, 8]: 0.20; Score HGI [1, 7]: 0.10; decrease in GNG [1, 9]: 10%; Score PIE [2, 8]: 0.60; Score PIE [2, 7]: 0.30; PIE (24 h insulin exposure) ([2]; insulin glargine 0.5 U/kg superimposed on standard T2D profile, baseline 5765): 7495; increase in PIE versus baseline ([2]; insulin glargine 0.5 U/kg, 24 h profile superimposed on standard T2D profile, trapezoidal rule): 30%; Score HGU [3, 8]: 0.48; Score HGU [3, 7]: 0.24; increase in HGU [3, 9]: 24%; Score PGU [4, 8]: 0.84; Score PGU [4, 7]: 0.42; increase in PGU [4, 9]: 42%; Score CE [5, 8]: 0.00; Score CE [5, 7]: 0.00
Insulin Isophane	0.00	0.10	0.28	0.23	0.40	0.00	
Insulin Lente	0.00	0.10	0.28	0.23	0.40	0.00	
Insulin Lispro	0.00	0.14	0.42	0.23	0.80	0.00	
Insulin Lispro Protamine	0.00	0.10	0.28	0.23	0.40	0.00	
Insulin Regular	0.00	0.11	0.33	0.21	0.64	0.00	
Insulin Ultralente	0.00	0.08	0.24	0.17	0.38	0.00	
